Experimental data published in patent US6013659A, “Methods of reducing tumor colony number using novel benzothiazole compounds” (University of Pittsburgh, priority 1998, dated 2000).
Where two headings read alike, the source gives them in different places.

Tests used:
[1] = system: B16 melanoma pulmonary metastases; assay: Early B16 pulmonary metastasis model (Day 4 B16 Model), A-NK cell adoptive immunotherapy; type: in vivo, C57BL/6 mice; details: for significance of reduction in tumor burden (in words): compound B experiments (Table 2), three experiments; for effect on reduction of B16 melanoma pulmonary metastases mediated by A-NK cell adoptive immunotherapy: A-NK cells administered on day 4; for effect on anti-metastatic therapeutic effect of adoptively transferred A-NK cells: conclusion from the two examples
Procedure: The B16 F1 melanoma model system, herein after referred to as B16 melanoma model system, is recognized as being highly resistant to treatment with many standard clinically used anti-cancer agents. Therefore, it was selected for testing because it is known to be reflective of the clinical situation for advanced melanoma.
A-NK cells were prepared from mouse spleens. All procedures were carried out in a laminar flow hood using sterile reagents and equipment. Briefly, a single cell suspension was prepared by gently mashing the spleens through a 40 mesh stainless steel screen into complete media (CM) which consisted of RPMI 1640 supplemented with 10% heat-inactivated fetal bovine serum, 100 U/ml penicillin, 100 μg/ml streptomycin sulfate, 50 μg/ml gentamicin sulfate, 2 mM L-glutamine, 5×10^-5 M 2-mercaptoethanol and 1% MEM non-essential amino acids. The erythrocytes in the resulting suspension were lysed and the suspension was centrifuged and washed twice with CM. Splencytes were cultured in T-150 flasks at 1.5×10^8 per cells per flask (A flasks) in 50 ml of CM containing 6000 IU rhIL-2/ml. […] On day 6 the A-NK cells were harvested.
Referring to FIG. 1 which illustrated a flow diagram of procedures for tumor metastasis system, A-NK generation, therapy and analysis for arly B16 tumors used in the present invention. All experimental groups initially contained at least 7 animals. A-NK cell generation was started at day -2 and the culture was expanded on days 0 and 1 as described above.
Separately on day 0, B16 tumor cells (2×10^5 i.v.) were injected into C57BL/6 mice. On days 0, 1, 2, 3 and 4, a benzothiazole compound of formula I (100 mg/kg, p.o.) was administered to the mice. On day 3 some animals received cyclophosphamide (300 mg/kg., i.p.) which is a standard chemotherapeutic drug.
Control mice received injections of vehicle diluent (1% gum arabic). […] On day 10, the mice were sacrificed, their lungs removed and the rumor colonies counted.

in vivo = assay: in vivo; design: species or system mice; details: mouse, po, 100 mg/kg
Procedure: (§1) The compound B of the present invention has been tested for its pharmacokinetics and toxicity in mice. As shown in FIG. 3 peak levels of compound B occurred in the liver 1 h after p.o. administration of a single 100 mg/kg dose. […] Mice were dosed for 5 consecutive days with 0-300 mg/kg of compound B in 1% gum arabic (p.o.). Their weight was measured in 1 week intervals and at 4 weeks the animals were sacrificed and their organ weights measured.

[2] = Subacute toxicity study in mice; type: in vivo; details: 0-300 mg/kg p.o. for 5 consecutive days, in 1% gum arabic
Procedure: as §1

[3] = system: B16 melanoma pulmonary metastases; details: 216 h
Procedure: A-NK cells were prepared from mouse spleens. All procedures were carried out in a laminar flow hood using sterile reagents and equipment. Briefly, a single cell suspension was prepared by gently mashing the spleens through a 40 mesh stainless steel screen into complete media (CM) which consisted of RPMI 1640 supplemented with 10% heat-inactivated fetal bovine serum, 100 U/ml penicillin, 100 μg/ml streptomycin sulfate, 50 μg/ml gentamicin sulfate, 2 mM L-glutamine, 5×10^-5 M 2-mercaptoethanol and 1% MEM non-essential amino acids. The erythrocytes in the resulting suspension were lysed and the suspension was centrifuged and washed twice with CM. Splencytes were cultured in T-150 flasks at 1.5×10^8 per cells per flask (A flasks) in 50 ml of CM containing 6000 IU rhIL-2/ml. After 2 days the media and the non-adherent cells from the A flasks were transferred into new T-150 flasks (25 ml per flask--B flasks) and fresh CM+IL-2 (25 ml) was placed in the A flasks. The next day (day 3) the non-adherent cells and media from the B flasks were transferred to an equal number of T-150 C flasks and fresh CM+IL-2 was placed on the B flasks. […]
On day 8, 3-4×10^7 A-NK cells plus 120,000 IU of IL-2 were adaptively transferred into tumor-bearing mice. […] On day 9, the mice were sacrificed, their lungs removed and the tumor colonies counted.

Row | Compound | Number of Pulmonary Metastases (± standard deviation) ([1]; Table 1, experiment 1, given without compound A) | Number of Pulmonary Metastases (± standard deviation) ([1]; Table 1, experiment 2, given without compound A) | Number of Pulmonary Metastases (± standard deviation) ([1]; Table 1, experiment 3, given without compound A, cyclophosphamide *p < 0.05 vs. control) | Number of Pulmonary Metastases (± standard deviation) ([1]; Table 2, experiment 1, given without compound B) | Number of Pulmonary Metastases (± standard deviation) ([1]; Table 2, experiment 2, given without compound B) | Number of Pulmonary Metastases (± standard deviation) ([1]; Table 2, experiment 3, given without compound B) | significance of reduction in tumor burden (in words) [1] | effect on reduction of B16 melanoma pulmonary metastases mediated by A-NK cell adoptive immunotherapy [1] | Number of Pulmonary Metastases (± standard deviation) ([1]; Table 2, experiment 1, Compound B + A-NK Cells (with IL-2), 100 mg/kg p.o. days 0-4, control 125 ± 66, *p < 0.05 vs. control) | Number of Pulmonary Metastases (± standard deviation) ([1]; Table 2, experiment 2, Compound B + A-NK Cells (with IL-2), 100 mg/kg p.o. days 0-4, control 187 ± 114, *p < 0.05 vs. control) | Number of Pulmonary Metastases (± standard deviation) ([1]; Table 2, experiment 3, Compound B + A-NK Cells (with IL-2), 100 mg/kg p.o. days 0-4, control 199 ± 45, **p < 0.001 vs. control) | effect on anti-metastatic therapeutic effect of adoptively transferred A-NK cells [1] | Tmax (in vivo) | organ weight change ([2]; at 4 weeks) | body weight change ([2]; weekly weights to 4 weeks) | reduction of tumor burden (average) ([1]; A-NK cells on day 4, compound A in combination with A-NK cells) | Number of Pulmonary Metastases (± standard deviation) ([1]; Table 1, experiment 1, Compound A + A-NK Cells (with IL-2), 100 mg/kg p.o. days 0-4, control 59 ± 41, *p < 0.05 vs. control) | Number of Pulmonary Metastases (± standard deviation) ([1]; Table 1, experiment 2, Compound A + A-NK Cells (with IL-2), 100 mg/kg p.o. days 0-4, control 32 ± 22, *p < 0.05 vs. control) | Number of Pulmonary Metastases (± standard deviation) ([1]; Table 1, experiment 3, Compound A + A-NK Cells (with IL-2), 100 mg/kg p.o. days 0-4, control 222 ± 74, **p < 0.02 vs. control) | reduction of tumor burden (average) [3]
1 | O=P1(N(CCCl)CCCl)NCCCO1 (centres unmarked) [Cyclophosphamide, cyclophosphamide, reference compound] | 33 ± 25 | 18 ± 12 | 81 ± 60 | 135 ± 55 | 156 ± 120 | 272 ± 110 | neither A-NK cells alone or cyclophosphamide yielded a significant reduction in tumor burden |  |  |  |  |  |  |  |  |  |  |  |  | 
2 | COc1cccc2sc(-c3ccc(C(F)(F)F)cc3)nc12 [Compound B, 4-Methoxy-2-(4-trifluoromethylphenyl) benzothiazole] |  |  |  |  |  |  | Significant reduction in tumor burden | enhanced the reduction | 66 ± 39 | 88 ± 49 | 88 ± 60 | augment the anti-metastatic therapeutic effect | 1 h | no significant difference | no significant difference |  |  |  |  | 
3 | COc1cccc2sc(-c3ccc(C(C)(C)C)cc3)nc12 [Compound A, 4-Methoxy-2-(4-t-butylphenyl)benzothiazole] |  |  |  |  |  |  |  | enhanced the reduction |  |  |  | augment the anti-metastatic therapeutic effect |  |  |  | 64% | 24 ± 19 | 13 ± 7 | 58 ± 35 | 38%
